From patent publication US12370176B2, “Methods of use for KV7 channel activators” (Biohaven Therapeutics Ltd., priority 2019, dated 2025)

Columns and labels:
[1] = biological target: T1, KCNQ2 homomers (Kv7.2 homomers) (Homo sapiens, UniProt O43526); test: Whole cell voltage-clamp, wildtype KCNQ2 homomers expressed in CHO cells; type: cell-based; conditions: 10.0 μM ezogabine; FIG. 11
T1 construct: expressed in transfected cells; host or cells: CHO cells
Protocol: Biological Assay Methods—Using lipid mediated transfection, plasmids including only wildtype (wt) KCNQ2, only wt KCNQ3, or both wt KCNQ2 and wt KCNQ3 subunits were expressed in Chinese hamster ovary (CHO) cells. Whole cell voltage-clamp protocols were used to measure gating and conductance density of wt channels before, during and after test compound application via focal pipette perfusion. The half-activating voltage (V1/2) was determined by Boltzmann fits of the conductance-voltage (G/V) curves.
Four highly recurrent KCNQ2-EE missense variants (FIG. 3), R210H (located in S4 of the voltage-sensor), T274M (located in the pore helix), A294V (located at the border of the pore loop and S6), and R581Q/L (located in the intracellular helix C), were introduced into KCNQ2 cDNA by QuikChange site-directed mutagenesis. R210H is in S4 of the voltage-sensor, T274M is in the pore helix, A294V is at the border of the pore loop and S6, and R581Q is in the intracellular helix C. Using lipid-mediated transfection, plasmids including the pathogenic variants were co-expressed with wildtype KCNQ2 or KCNQ2 and KCNQ3 subunits in Chinese hamster ovary (CHO) cells. The KCNQ2 S5 helix mutation W236L, which abolishes EZO modulation, was used to characterize Compound A binding. […]

KCNQ2 W236L = biological target: T2, KCNQ2 W236L (Homo sapiens, UniProt O43526, W236L); test: Whole cell voltage-clamp, KCNQ2 W236L channels in CHO cells; type: cell-based
T2 construct: expressed in transfected cells; host or cells: CHO cells
Text: Four highly recurrent KCNQ2-EE missense variants (FIG. 3), R210H (located in S4 of the voltage-sensor), T274M (located in the pore helix), A294V (located at the border of the pore loop and S6), and R581Q/L (located in the intracellular helix C), were introduced into KCNQ2 cDNA by QuikChange site-directed mutagenesis. R210H is in S4 of the voltage-sensor, T274M is in the pore helix, A294V is at the border of the pore loop and S6, and R581Q is in the intracellular helix C. Using lipid-mediated transfection, plasmids including the pathogenic variants were co-expressed with wildtype KCNQ2 or KCNQ2 and KCNQ3 subunits in Chinese hamster ovary (CHO) cells. The KCNQ2 S5 helix mutation W236L, which abolishes EZO modulation, was used to characterize Compound A binding. Whole cell voltage-clamp protocols were used to measure gating and conductance of wildtype channels and mutated subunit containing channels, before, during and after Compound A application via focal pipette perfusion.

**Q.** With `CCOC(=O)Nc1ccc(NCc2ccc(F)cc2)cc1N` [EZO, ezogabine] as the compound, how does the current density [1] read?
**A.** increased

**Q.** And the current density (KCNQ2 W236L; W236L channels, 10.0 μM ezogabine, FIG. 14)?
**A.** did not affect

**Q.** What about the “dependence of KCNQ2 homomer activation on W236” value (KCNQ2 W236L; wildtype KCNQ2 versus W236L) of the same compound?
**A.** requires W236, like EZO
